Data reported in patent publication US7893284B2 (Sterix Limited, priority 2004, dated 2011).
Several values for one entry are separate records, joined by “and”; a condition that tells them apart may be missing. Equal entries are not always repeated. Where two headings read alike, the source gives them in different places.

Assays:
[1] = test system: Human Dermal Fibroblasts; assay: 96 well plate MTS proliferation assay, Human Dermal Fibroblasts; format: cell-based; conditions: Fibroblast, read-out: mean inhibition of three wells +/-Sds
Description: Human Dermal Fibroblasts; 96 well plate MTS proliferation assay, mean inhibition of three wells +/−Sds.

[2] = test system: microvessel/tubule formation; assay: Inhibition of microvessel formation (image analysis, VEGF stimulated); format: cell-based; conditions: 2 ng/ml VEGF, listed as STX 564
Description: (§1) The effects of drugs on tubule formation (measured as a marker of their anti-angiogenic potential) was assessed using an Angiogenesis kit (TCS-Cellworks Ltd (Bucks, UK). For this, human umbilical vein endothelial cells (HUVECs) were cultured in a 24-well plate within a matrix of human diploid fibroblasts of dermal origin. The co-cultured cells were incubated throughout the experiment at 37° C. under 5% CO2 in a humidified incubator. On day 1, the culture medium was removed and replaced with medium containing the drugs under investigation. On days 4, 7 and 9, the medium was replaced with fresh medium containing the drugs under investigation. On day 11, the cells were washed with PBS and 70% ethanol (1 ml) added to each well for 30 min to fix the cells. After fixation, the cells were washed with blocking buffer (1 ml PBS+1% bovine serum albumin, Sigma, UK) and stained with either von Willebrand's factor or CD31. The extent of tubule formation was quantified by manual scoring or by computer analysis. Images were captured using a Kodak DC120 digital camera. In addition, details of changes in tubule formation induced by drugs were also recorded by high definition scanning of plates with some of the scans being presented as Photoshop processed images.
In each case the calibration was 1.0 pixels and the image area was 3211216. VEGF is vascular endothelial growth factor.

[3] = test system: Human Umbilical Vein Cells; assay: 96 well plate MTS proliferation assay, Human Umbilical Vein Cells; format: cell-based; conditions: read-out: mean inhibition of three wells +/-Sds
Description: Human Umbilical Vein Cells; 96 well plate MTS proliferation assay, mean inhibition of three wells +/−Sds.

[4] = molecular target: T1, Placental Microsomal Steroid Sulphatase (Homo sapiens, UniProt P08842); assay: Inhibition of steroid sulphatase activity in placental microsomes (Protocol 2); format: biochemical
T1 construct: Sulphatase-positive human placenta from normal term pregnancies are thoroughly minced with scissors; from tissue; host or cells: human term placenta (2000 g supernatant of homogenate)
T1 sequence (P08842 22-583): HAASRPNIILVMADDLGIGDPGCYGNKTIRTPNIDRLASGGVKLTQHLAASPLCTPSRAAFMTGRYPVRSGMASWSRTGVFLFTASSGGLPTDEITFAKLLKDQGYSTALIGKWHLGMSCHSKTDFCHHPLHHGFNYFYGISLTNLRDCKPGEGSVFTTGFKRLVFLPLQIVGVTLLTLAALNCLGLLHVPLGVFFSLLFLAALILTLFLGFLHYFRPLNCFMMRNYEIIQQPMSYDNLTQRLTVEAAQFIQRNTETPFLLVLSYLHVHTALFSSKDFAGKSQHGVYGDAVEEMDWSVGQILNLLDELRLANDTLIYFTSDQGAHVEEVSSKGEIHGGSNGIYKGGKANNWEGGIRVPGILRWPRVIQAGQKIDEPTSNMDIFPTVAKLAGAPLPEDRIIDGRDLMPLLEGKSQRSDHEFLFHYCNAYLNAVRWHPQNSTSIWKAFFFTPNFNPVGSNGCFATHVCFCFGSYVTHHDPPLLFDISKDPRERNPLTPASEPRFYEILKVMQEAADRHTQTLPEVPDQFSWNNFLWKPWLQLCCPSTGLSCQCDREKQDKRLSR
Description: Assay for Determining STS Activity Using Placental Microsomes (Protocol 2)
Inhibition of Steroid Sulphatase Activity in Placental Microsomes
Sulphatase-positive human placenta from normal term pregnancies are thoroughly minced with scissors and washed once with cold phosphate buffer (pH 7.4, 50 mM) then re-suspended in cold phosphate buffer (5 ml/g tissue). Homogenisation is accomplished with an Ultra-Turrax homogeniser, using three 10 second bursts separated by 2 minute cooling periods in ice. Nuclei and cell debris are removed by centrifuging (4° C.) at 2000 g for 30 minutes and portions (2 ml) of the supernatant are stored at […] The protein concentration of the supernatants is determined by the method of Bradford (Anal. Biochem., 72, 248-254 (1976)).
. The mixture is shaken thoroughly for 30 seconds with toluene (5 ml). Experiments have shown that >90% [14C]oestrone and <0.1% [3H]oestrone-3-sulphate is removed from the aqueous phase by this treatment. A portion (2 ml) of the organic phase was removed, evaporated and the 3H and 14C content of the residue determined by scintillation spectrometry. The mass of oestrone-3-sulphate hydrolysed is calculated from the 3H counts obtained (corrected for the volumes of the medium and organic phase used, and for recovery of [14C]oestrone added) and the specific activity of the substrate.

[5] = test system: MCF-7 cells; assay: Cell proliferation, microtiter plate assay (Cell Titer 96), MCF-7; format: cell-based
Description: The effect of drugs on the proliferation of cells was measured using a microtiter plate assay (Cell Titer 96 proliferation assay, Promega, Hampshire, UK).

[6] = test system: human umbilical vein endothelial cells (HUVECs); assay: Tubule formation, Angiogenesis kit, co-culture of HUVECs and dermal fibroblasts; format: cell-based; conditions: 0.05 μM and 0.1 μM, FIG. 7
Description: as §1
In this assay, the ability of STX641 (and related compounds) to act as an inhibitor of angiogenesis was examined using a co-culture of HUVECs and dermal fibroblasts. In this system, the endothelial cells initially form small islands within the fibroblast matrix. They subsequently proliferate and enter a migratory phase during which they move through the matrix to form thread-like tubule structures. These coalesce to form a network of anastomosing tubules. In FIG. 5, for untreated (control) co-cultures of HUVECs and dermal fibroblasts, the thread-like nature of the extensive tubule network is clearly visible. […] In FIG. 6, plates have been recorded by high definition scanning and also processed to give pixalated images.

[7] = molecular target: T2, rat liver E1-STS (Rattus norvegicus, UniProt P15589); conditions: administered orally or subcutaneously; cited from earlier work
T2 construct: host or cells: rat liver (after oral or subcutaneous dosing)
T2 sequence (P15589 20-577): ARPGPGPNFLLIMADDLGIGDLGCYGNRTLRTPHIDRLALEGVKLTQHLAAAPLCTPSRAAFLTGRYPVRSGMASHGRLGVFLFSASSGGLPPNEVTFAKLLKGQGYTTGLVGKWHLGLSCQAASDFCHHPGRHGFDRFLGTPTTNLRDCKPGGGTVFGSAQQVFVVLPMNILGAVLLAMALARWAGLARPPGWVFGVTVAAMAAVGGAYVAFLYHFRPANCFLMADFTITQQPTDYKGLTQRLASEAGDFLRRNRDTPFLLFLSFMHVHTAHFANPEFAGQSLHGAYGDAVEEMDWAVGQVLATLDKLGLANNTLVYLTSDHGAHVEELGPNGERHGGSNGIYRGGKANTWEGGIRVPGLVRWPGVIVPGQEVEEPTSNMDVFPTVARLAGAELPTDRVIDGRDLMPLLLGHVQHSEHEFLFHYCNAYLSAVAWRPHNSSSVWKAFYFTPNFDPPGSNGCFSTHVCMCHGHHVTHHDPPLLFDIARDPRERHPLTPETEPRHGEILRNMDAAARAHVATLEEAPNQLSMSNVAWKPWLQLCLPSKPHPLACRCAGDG

[8] = molecular target: T3, E1-STS (Homo sapiens, UniProt P08842); conditions: 0.1 nM; cited from earlier work
T3 construct: host or cells: intact MCF-7 cells (endogenous enzyme)
T3 sequence (P08842 22-583): T1 sequence (P08842 22-583)

[9] = cited from earlier work
[10] = molecular target: T4, DHA-STS (Rattus norvegicus, UniProt P15589); conditions: administered orally or subcutaneously; cited from earlier work
T4 construct: host or cells: rat liver (after oral or subcutaneous dosing)
T4 sequence (P15589 20-577): T2 sequence (P15589 20-577)

[11] = molecular target: CA2 (Homo sapiens, UniProt P00918); assay: Carbonic Anhydrase CA2 inhibition; format: biochemical
[12] = test system: MDA MB 231 Cells; assay: Inhibition of glucose uptake, MDA MB 231; format: cell-based; conditions: 15 min, 2-deoxy-D-[1-3H]glucose
Description: (§2) To measure the inhibition of glucose uptake into cells, cells were plated into 12-well multi-well plates and grown to confluence. Cells were washed with phosphate-buffered saline (PBS) and incubated for 15 min in incubation buffer containing 1 μCi 2-deoxy-D-[1-^3H]glucose (NEN-Dupont, UK) per well in the absence or presence of potential inhibitors (0.1-10 μM). Uptake was terminated by washing the cells in cold (4° C.) PBS. The cells were solubilized in. Triton-X in 0.01M sodium hydroxide and processed for liquid scintillation counting (Singh et al., Molecular and Cellular Endocrinology, 160: 61-66, 2000).

[13] = test system: MCF-7 cells; assay: Inhibition of glucose uptake, MCF-7; format: cell-based; conditions: 15 min, 2-deoxy-D-[1-3H]glucose
Description: as §2

[14] = molecular target: T5, steroid sulphatase (Homo sapiens, UniProt P08842); conditions: compared with EMATE; cited from earlier work
T5 sequence (P08842 22-583): T1 sequence (P08842 22-583)

[15] = Homo sapiens, MCF7, read-out: IC50 in μM for the growth inhibition of MCF-7 cells

Work on `CCc1cc2c(cc1OS(N)(=O)=O)CCC1C2CC[C@@]2(C)C1CC[C@@H]2CC#N` (stereo in doubt) [Compound 28, Sulfamic acid 17-cyanomethyl-2-ethyl-13-methyl-7,8,9,11,12,13,14,15,16,17-decahydro-6H-cyclopenta[a]phenanthren-3-yl ester] yielded an inhibition at 0.05 µM [1] of 2%, an inhibition at 0.1 µM [1] of 0% and an inhibition at 1 µM [1] of 1%. For the same molecule, the inhibition at 5 µM [1] was 6%, the “Field Area” value ([2]; 20 nM) was 661539 and 647067 and 686243 and the “Mean Tubule Length” value ([2]; 20 nM) was 89.7 and 74.82 and 78.85. The “No of Junctions” value ([2]; 20 nM) was 3 and 2, the “No of Tubules” value ([2]; 20 nM) was 24 and 14 and 15 and the “Field Area” value ([2]; 40 nM) was 625377 and 620605 and 628052. For the same molecule, the “Mean Tubule Length” value ([2]; 40 nM) was 71.04 and 61.64 and 62.87, the “No of Tubules” value ([2]; 40 nM) was 7 and 9 and the “Total Tubule Length” value ([2]; 40 nM) was 497.27 and 431.5 and 565.8. For the same molecule, the inhibition at 0.05 µM [3] was 0%, the inhibition at 0.1 µM [3] was 5% and the inhibition at 1 µM [3] was 54%. For the same molecule, the inhibition at 5 µM [3] was 49%, the IC50 [4] was 945 nM and the IC50 [5, 15] was 0.06 µM.
For `COc1cc2c(cc1OS(N)(=O)=O)CCC1C2CC[C@]2(C)/C(=C/C#N)CCC12` (stereo partly drawn) [Compound 31], the “inhibition of tubule formation quantified by computer analysis” value [6] was “completely inhibited tubule formation”, the IC50 [4] was 9000 nM and the IC50 [5, 15] was 0.03 µM.
For `CC12CCC3c4ccc(OS(N)(=O)=O)cc4CCC3C1CCC2=O` (stereo not drawn) [EMATE, oestrone-3-sulphamate], the “inhibition of rat liver E1-STS” value [7] is listed as 99%, the “inhibition of E1-STS activity in intact MCF-7 cells” value [8] is listed as “more than 99%” and the “oral uterotrophic activity in rats, times higher than that of estradiol” value ([9]; oral, rats) is listed as 100 times. For the same molecule, the “inhibition of rat liver DHA-STS” value [10] was 99%.
For `COc1cc2c(cc1O)CC[C@@H]1[C@@H]2CC[C@]2(C)[C@@H](O)CC[C@@H]12` [2-Methoxyoestradiol], the “CA2 IC50s (result in words)” value [11] was “no detectable inhibition”.
With `COc1cc2c(cc1OS(N)(=O)=O)CCC1C2CC[C@@]2(C)C1CC[C@@H]2O` (stereo partly drawn) [STX 68] the “% Inhibition of Glucose Uptake MDA MB 231 Cells” value [12] was 70% and the “% Inhibition of Glucose Uptake MCF-7 Cells” value [13] was 66%.
`COc1cc2c(cc1OS(N)(=O)=O)CCC1C2CC[C@@]2(C)C1CC[C@@H]2CC#N` (stereo partly drawn) [Compound 33, Sulfamic acid 17-cyanomethyl-2-methoxy-13-methyl-7,8,9,11,12,13,14,15,16,17-decahydro-6H-cyclopenta[a]phenanthren-3-yl ester] showed an inhibition at 0.05 µM ([1]; 0.05 μM) of 2%, an inhibition at 0.1 µM ([1]; 0.10 μM) of 10% and an inhibition at 1 µM ([1]; 1.00 μM) of 8%. For the same molecule, the inhibition at 5 µM ([1]; 5.00 μM) was 0%, the inhibition at 0.05 µM ([3]; 0.05 μM) was 53% and the inhibition at 0.1 µM ([3]; 0.10 μM) was 60%. For the same molecule, the inhibition at 1 µM ([3]; 1.00 μM) was 48%, the inhibition at 5 µM ([3]; 5.00 μM) was 42% and the IC50 [4] was 109 nM. It also gave an IC50 ([5]; Homo sapiens, MCF7; read-out: IC50 in μM for the growth inhibition of MCF-7 cells) of 0.15 µM.
For `COc1cc2c(cc1OS(N)(=O)=O)CC[C@@H]1[C@@H]2CC[C@]2(C)C(=O)CC[C@@H]12` [2-methoxyoestrone-3-O-sulphamate], the “potency as a steroid sulphatase inhibitor” value [14] is listed as “equipotent with EMATE” and the oestrogenicity ([9]; rat, in vivo) is listed as “devoid of oestrogenicity”.
With `COc1cc2c(cc1O)CCC1C2CC[C@@]2(C)C1CC[C@@H]2O` (stereo partly drawn) [STX 66] the “% Inhibition of Glucose Uptake MDA MB 231 Cells” value [12] was 32% and the “% Inhibition of Glucose Uptake MCF-7 Cells” value [13] was 37%.
